The values below come from patent publication US20240123079A1 (Seagen Inc., priority 2021, published 2024).

For the first assay, the system named is THP1-Dual™ reporter cells. The assay can be described thus: THP1-Dual cell reporter assay (IRF-Lucia luciferase reporter). Conditions: ADCs: drug linker conjugated to a targeted mAb, 48 h. The class given is cell-based, human. The procedure:
THP1-Dual™ Cell Reporter Assay
Potency of compounds and ADCs was evaluated using the THP1-Dual™ cells (InvivoGen PN: thpd-nfis [also referred to as THP1 dual reporter cells]), which contain an IRF-Lucia luciferase reporter. Cells were cultured in RPMI-1640 (Gibco) with 10% heat-inactivated fetal bovine serum, Pen-Strep (100 U/mL-100 μg/mL, Gibco), HEPES (10 mM, Gibco)), sodium pyruvate (1 mM, Gibco), MEM non-essential amino acids (1×, Gibco), GlutaMAX (1×, Gibco), and beta-mercaptoethanol (55 μM, Gibco). Cells were plated in a 96-well flat bottom tissue culture-treated clear polystyrene plate (Corning Costar #3596) at ˜100,000 cells per well in 200 μL with the indicated concentration of the compound or ADC. The supernatant was harvested at 24 hours (compounds) or 48 hours (ADC) post plating for the reporter assay, or as indicated. To measure Lucia reporter signal, 10 μL of the supernatant was combined with 40 μL of QUANTI-Luc™ Luminescence assay reagent (Invivogen PN: rep-qlc1) in a 96-well clear flat bottom tissue culture-treated black polystyrene plate (Corning Costar #3603) and read on a Perkin Elmer Envision plate reader.
STING agonist compounds were assessed for their ability to activate THP1-Dual™ reporter cells, a human monocytic cell line in which type I interferon (IRF) signaling can be monitored via a secreted luciferase reporter protein (Lucia). THP1-Dual™ cells were treated with increasing concentrations of the agonists for 24h, then supernatants were harvested and the Lucia reporter signal was quantified using QUANTI-Luc™ Luminescence assay reagent.
For orientation: Reporter assays use an easily measured gene product as a stand-in for the process of interest.
On to `CCn1nc(C)cc1C(=O)Nc1nc2cc(C(N)=O)cc(OC)c2n1C/C=C/Cn1c(NC(=O)c2cc(C(F)(F)F)nn2CC)nc2cc(C(N)=O)cc(OCCCN(C)C(=O)CCN3C(=O)C=CC3=O)c21` [Compound 109], for which the “EC50 (ng/mL)” value is given as >10,000 ng/mL. For `CCn1nc(C)cc1C(=O)Nc1nc2cc(S(N)(=O)=O)ccc2n1C/C=C/Cn1c(NC(=O)c2cc(C)nn2CC)nc2cc(C(N)=O)cc(OCCCN(C)C(=O)CCN3C(=O)C=CC3=O)c21` [Compound 25, (E)-7-(3-(3-(2,5-dioxo-2,5-dihydro-1H-pyrrol-1-yl)-N-methylpropanamido)propoxy)-2-(1-ethyl-3-methyl-1H-pyrazole-5-carboxamido)-1-(4-(2-(1-ethyl-3-methyl-1H-pyrazole-5-carboxamido)-5-sulfamoyl-1H-benzo[d]imidazol-1-yl)but-2-en-1-yl)-1H-benzo[d]imidazole-5-carboxamide], the EC50 (commonly the midpoint of the concentration-response curve) was 0.307 µg/mL. As for `CCn1nc(C)cc1C(=O)Nc1nc2cc(C(N)=O)cc(OC)c2n1C/C=C/Cn1c(NC(=O)c2ncccn2)nc2cc(C(N)=O)cc(OCCCN(C)C(=O)CCN3C(=O)C=CC3=O)c21` [Compound 101], the “EC50 (ng/mL)” value is >10,000 ng/mL. Same read-out and setting: the figure for `CCn1cc(C(=O)Nc2nc3cc(C(N)=O)cc(OCCCN(C)C(=O)CCN4C(=O)C=CC4=O)c3n2C/C=C/Cn2c(NC(=O)c3cc(C)nn3CC)nc3cc(C(N)=O)cc(OC)c32)c(C)n1` [Compound 102] is >10,000 ng/mL; for `CCn1nc(C)cc1C(=O)Nc1nc2cc(C(=O)O)cc(OC)c2n1C/C=C/Cn1c(NC(=O)c2cc(C)nn2CC)nc2cc(C(=O)O)cc(OCCCN(C)C(=O)OCc3ccc(O[C@@H]4O[C@H](C(=O)O)[C@@H](O)[C@H](O)[C@H]4O)cc3NC(=O)CCNC(=O)CCN3C(=O)C=CC3=O)c21` [Compound 69] it is >10,000 ng/mL. With `CCn1nc(C)cc1C(=O)Nc1nc2cc(C(=O)O)cc(OC)c2n1C/C=C/Cn1c(NC(=O)c2cc(C)nn2CC)nc2cc(C(=O)O)cc(OCCCN(C)C(=O)CCN3C(=O)C=CC3=O)c21` [Compound 68, (E)-1-(4-(5-carboxy-2-(1-ethyl-3-methyl-1H-pyrazole-5-carboxamido)-7-methoxy-1H-benzo[d]imidazol-1-yl)but-2-en-1-yl)-7-(3-(3-(2,5-dioxo-2,5-dihydro-1H-pyrrol-1-yl)-N-methylpropanamido)propoxy)-2-(1-ethyl-3-methyl-1H-pyrazole-5-carboxamido)-1H-benzo[d]imidazole-5-carboxylic acid], the “EC50 (ng/mL)” value is listed as >10,000 ng/mL. Still for that read-out and setting: for `CCc1cc(C(=O)Nc2nc3cc(C(N)=O)cc(OCCCN(C)C(=O)CCN4C(=O)C=CC4=O)c3n2C/C=C/Cn2c(NC(=O)c3cc(C)nn3CC)nc3cc(C(N)=O)cc(OC)c32)n(C)n1` [Compound 104] the value was >10,000 ng/mL. For the compound `CCn1nc(C)cc1C(=O)Nc1nc2cc(C(N)=O)cc(OC)c2n1C/C=C/Cn1c(NC(=O)c2cc(C)nn2CC)nc2cc(C(N)=O)cc(OCCCOC3CN(C(=O)CCN4C(=O)C=CC4=O)C3)c21` [Compound 27, (E)-1-(4-(5-carbamoyl-2-(1-ethyl-3-methyl-1H-pyrazole-5-carboxamido)-7-methoxy-1H-benzo[d]imidazol-1-yl)but-2-en-1-yl)-7-(3-((1-(3-(2,5-dioxo-2,5-dihydro-1H-pyrrol-1-yl)propanoyl)azetidin-3-yl)oxy)propoxy)-2-(1-ethyl-3-methyl-1H-pyrazole-5-carboxamido)-1H-benzo[d]imidazole-5-carboxamide], the “EC50” value was found to be 0.0104 µg/mL.

Staying with this assay, now noted: Homo sapiens, THP1-Dual; free compounds, 24 h, Lucia reporter signal; read-out: EC50.
`CCn1nc(C)cc1C(=O)Nc1nc2cc(S(N)(=O)=O)ccc2n1C/C=C/Cn1c(NC(=O)c2cc(C)nn2CC)nc2cc(C(N)=O)cc(OCCCN(C)C(=O)OC(C)(C)C)c21` [Compound 25f]: the EC50 was found to be 12 nM.

Consider `CCn1nc(C)cc1C(=O)Nc1nc2cc(S(N)(=O)=O)ccc2n1C/C=C/Cn1c(NC(=O)c2cc(C)nn2CC)nc2cc(C(N)=O)cc(OCCC3CNC3)c21` [Compound 135, (E)-7-(2-(azetidin-3-yl)ethoxy)-2-(1-ethyl-3-methyl-1H-pyrazole-5-carboxamido)-1-(4-(2-(1-ethyl-3-methyl-1H-pyrazole-5-carboxamido)-5-sulfamoyl-1H-benzo[d]imidazol-1-yl)but-2-en-1-yl)-1H-benzo[d]imidazole-5-carboxamide], for which the EC50 was determined as 2010 nM.

For the compound `COc1cc(C(=O)Nc2nc3cc(C(N)=O)cc(O)c3n2C/C=C/Cn2c(NC(=O)c3cc(OC)nn3C)nc3cc(C(N)=O)cc(OC)c32)n(C)n1` [Compound 51], the EC50 is more than 10000 nM. On the same count and under the same terms, for `CCn1nc(C)cc1C(=O)Nc1nc2cc(C(=O)O)cc(O)c2n1C/C=C/Cn1c(NC(=O)c2cc(C)nn2CC)nc2cc(C(=O)O)cc(OC)c21` [Compound 63, (E)-1-(4-(5-carboxy-2-(1-ethyl-3-methyl-1H-pyrazole-5-carboxamido)-7-hydroxy-1H-benzo[d]imidazol-1-yl)but-2-en-1-yl)-2-(1-ethyl-3-methyl-1H-pyrazole-5-carboxamido)-7-methoxy-1H-benzo[d]imidazole-5-carboxylic acid] the value was 2510 nM; for `COc1cc(C(N)=O)cc2nc(NC(=O)c3cnccn3)n(C/C=C/Cn3c(NC(=O)c4cnccn4)nc4cc(C(N)=O)cc(O)c43)c12` [Compound 46], more than 10000 nM. Turning to `CCn1nc(C)cc1C(=O)Nc1nc2cc(C(N)=O)cc(OC)c2n1C/C=C/Cn1c(NC(=O)c2ccnnc2)nc2cc(C(N)=O)cc(OCCCNC)c21` [Compound 80], the EC50 was more than 10000 nM.

Take `CCc1nc(C)oc1C(=O)Nc1nc2cc(C(N)=O)cc(OCCC3CN(C(=O)CCN4C(=O)CC(SC[C@H](N)C(=O)O)C4=O)C3)c2n1C/C=C/Cn1c(NC(=O)c2cc(C)nn2CC)nc2cc(C(N)=O)cc(OC)c21` (stereo partly drawn) [Compound 154, S-(1-(3-(3-(2-((5-carbamoyl-1-((E)-4-(5-carbamoyl-2-(1-ethyl-3-methyl-1H-pyrazole-5-carboxamido)-7-methoxy-1H-benzo[d]imidazol-1-yl)but-2-en-1-yl)-2-(4-ethyl-2-methyloxazole-5-carboxamido)-1H-benzo[d]imidazol-7-yl)oxy)ethyl)azetidin-1-yl)-3-oxopropyl)-2,5-dioxopyrrolidin-3-yl)-L-cysteine]: the EC50 is more than 10000 nM. On the same count and under the same terms, the figure for `CCn1nc(C)cc1C(=O)Nc1nc2cc(C(=O)O)cc(OC)c2n1C/C=C/Cn1c(NC(=O)c2cc(C)nn2CC)nc2cc(C(N)=O)cc(OCCCN(C)C(=O)CCN3C(=O)CC(SC[C@H](N)C(=O)O)C3=O)c21` (stereo partly drawn) [Compound 130, 1-((E)-4-(7-(3-(3-(3-(((R)-2-amino-2-carboxyethyl)thio)-2,5-dioxopyrrolidin-1-yl)-N-methylpropanamido)propoxy)-5-carbamoyl-2-(1-ethyl-3-methyl-1H-pyrazole-5-carboxamido)-1H-benzo[d]imidazol-1-yl)but-2-en-1-yl)-2-(1-ethyl-3-methyl-1H-pyrazole-5-carboxamido)-7-methoxy-1H-benzo[d]imidazole-5-carboxylicacid] is 2260 nM; for `CCn1nc(C(=O)Nc2nc3cc(C(N)=O)cc(O)c3n2C/C=C/Cn2c(NC(=O)c3cc(C)n(CC)n3)nc3cc(C(N)=O)cc(OC)c32)cc1C` [Compound 32] it is 44.5 nM. The same measure, in the same setting: the figure for `CCn1nc(C)cc1C(=O)Nc1nc2cc(S(=O)(=O)NC)ccc2n1C/C=C/Cn1c(NC(=O)c2cc(C)nn2CC)nc2cc(C(N)=O)cc(OCCCN(C)C(=O)OC(C)(C)C)c21` [Compound 127, tert-butyl (E)-(3-((5-carbamoyl-2-(1-ethyl-3-methyl-1H-pyrazole-5-carboxamido)-1-(4-(2-(1-ethyl-3-methyl-1H-pyrazole-5-carboxamido)-5-(N-methylsulfamoyl)-1H-benzo[d]imidazol-1-yl)but-2-en-1-yl)-1H-benzo[d]imidazol-7-yl)oxy)propyl)(methyl)carbamate] is 301 nM; for `CCn1nc(C)cc1C(=O)Nc1nc2cc(C(=O)OC)cc(OC)c2n1C/C=C/Cn1c(NC(=O)c2cc(C)nn2CC)nc2cc(C(N)=O)cc(OCCCN(C)C(=O)CCN3C(=O)CC(SC[C@H](N)C(=O)O)C3=O)c21` (stereo partly drawn) [Compound 129, S-(1-(3-((3-((5-carbamoyl-2-(1-ethyl-3-methyl-1H-pyrazole-5-carboxamido)-1-((E)-4-(2-(1-ethyl-3-methyl-1H-pyrazole-5-carboxamido)-7-methoxy-5-(methoxycarbonyl)-1H-benzo[d]imidazol-1-yl)but-2-en-1-yl)-1H-benzo[d]imidazol-7-yl)oxy)propyl)(methyl)amino)-3-oxopropyl)-2,5-dioxopyrrolidin-3-yl)-L-cysteine] it is 836 nM. On the same count and under the same terms, for `CCc1nc(C)oc1C(=O)Nc1nc2cc(C(N)=O)cc(OCCCOC3CNC3)c2n1C/C=C/Cn1c(NC(=O)c2cc(C)nn2CC)nc2cc(C(N)=O)cc(OC)c21` [Compound 143, (E)-N-(7-(3-(azetidin-3-yloxy)propoxy)-5-carbamoyl-1-(4-(5-carbamoyl-2-(1-ethyl-3-methyl-1H-pyrazole-5-carboxamido)-7-methoxy-1H-benzo[d]imidazol-1-yl)but-2-en-1-yl)-1H-benzo[d]imidazol-2-yl)-4-ethyl-2-methyloxazole-5-carboxamide] the value was 155 nM.

Staying with this assay, now noted: free compounds, 24 h, Lucia reporter signal; read-out: EC50.
For `CCn1nc(C)cc1C(=O)Nc1nc2cc(C(N)=O)cc(OC)c2n1C/C=C/Cn1c(NC(=O)c2cc(C)nn2CC)nc2cc(C(N)=O)cc(OCCC3CN(C(=O)OC(C)(C)C)C3)c21` [Compound 26e], the EC50 was determined as 5 nM.
